In ChEMBL document CHEMBL3421586, “1,19-seco-Avermectin analogues from a ΔaveCDE mutant Streptomyces avermectinius strain” (J Nat Prod, 2015) one finds IC50 data, which are given here for five compounds.

By IC50 is commonly meant the concentration that gives 50% inhibition.

Holding throughout (assay type): functional, cell-based
For one test, the system named is B16. Kind of test: Growth inhibition of mouse B16 cells by MTT method. For orientation: Tetrazolium assays rely on reduction of a dye to a coloured formazan, in cell work by metabolically active cells.
A short description of test [1]: Growth inhibition of human MG63 cells by MTT method. The following applies: MG-63.
Test [2] can be described thus: Growth inhibition of human Saos2 cells by MTT method. The note with it: SAOS-2.

Counter-ions that a name gives are not always drawn.

For `CC[C@H](C)[C@H]1O[C@@]2(CCC[C@@H](C/C=C(\C)[C@@H](O)[C@@H](C)/C=C/C=C(\C)c3cc(O)c(C)cc3C(=O)O)O2)C[C@H](O)[C@@H]1C`, the results for the IC50 (with B16; in test [1]; in test [2]) were 14.7 µM, 5.1 µM and 1.9 µM, respectively.

Regarding `COc1cccc2c1C(=O)c1c(O)c3c(c(O)c1C2=O)C[C@@](O)(C(=O)CO)C[C@@H]3O[C@H]1C[C@H](N)[C@H](O)[C@H](C)O1` [DOXORUBICIN HYDROCHLORIDE], the IC50 with B16 stood at 6.4 µM; in test [1], 5.2 µM; in test [2], 4.2 µM.

For the compound `CC[C@H](C)[C@H]1O[C@]2(C=C[C@@H]1C)C[C@@H]1C[C@@H](C/C=C(\C)[C@@H](O[C@H]3C[C@H](OC)[C@@H](O[C@H]4C[C@H](OC)[C@@H](O)[C@H](C)O4)[C@H](C)O3)[C@@H](C)/C=C/C=C3\CO[C@@H]4[C@H](O)C(C)=C[C@@H](C(=O)O1)[C@]34O)O2` [ABAMECTIN COMPONENT B1A], the IC50 in the test with B16 is 20.5 µM; in test [1], 8.6 µM; in test [2], 14.7 µM.

As to `CC[C@H](C)[C@H]1O[C@@]2(CCC[C@@H](C/C=C(\C)[C@@H](O[C@H]3C[C@H](OC)[C@@H](O)[C@H](C)O3)[C@@H](C)/C=C/C=C(\C)c3cc(O)c(C)cc3C(=O)O)O2)C[C@H](O)[C@@H]1C`, the IC50 in the test on B16 is 40.6 µM; in test [1] it was 1.7 µM; in test [2] it was 0.7 µM.

Take `CC[C@H](C)[C@H]1O[C@@]2(C=CC[C@@H](C/C=C(\C)[C@@H](O)[C@@H](C)/C=C/C=C(\C)c3cc(O)c(C)cc3C(=O)O)O2)C=C[C@@H]1C`: the values for the IC50 (with B16; in test [1]; in test [2]) were 35.1 µM, 6.9 µM and 2.5 µM, respectively.
